Assay results taken from publication PMC6958422 (Pharmaceuticals, 2019).
Read-outs that look alike come from different tables or passages of the source.

Columns and labels:
hA2A AR = biological target: T1, hA2A AR (Homo sapiens, UniProt P29274); experiment: [3H]ZM241385 competition binding to hA2A CHO cell membranes; settings: for I% hA2A: percentage of inhibition at 1µM, [3H]ZM241385; for Ki: [3H]ZM241385, hA2A CHO cells, means ± SEM
T1 construct: expressed in transfected cells; host or cells: CHO cells
T1 sequence (P29274 whole entry): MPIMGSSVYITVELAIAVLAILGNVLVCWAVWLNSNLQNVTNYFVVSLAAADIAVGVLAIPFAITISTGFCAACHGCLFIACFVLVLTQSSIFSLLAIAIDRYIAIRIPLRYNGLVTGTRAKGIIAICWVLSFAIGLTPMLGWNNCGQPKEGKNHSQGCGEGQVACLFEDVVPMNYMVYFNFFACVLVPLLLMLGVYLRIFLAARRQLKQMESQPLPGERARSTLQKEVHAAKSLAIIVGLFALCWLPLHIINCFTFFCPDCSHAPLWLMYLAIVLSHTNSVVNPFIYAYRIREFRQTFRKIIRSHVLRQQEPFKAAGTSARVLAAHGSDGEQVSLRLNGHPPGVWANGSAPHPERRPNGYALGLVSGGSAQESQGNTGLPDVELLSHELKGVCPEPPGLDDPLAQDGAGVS
Procedure: (§1) CHO cells transfected with hA1, hA2A, hA2B, and hA3 ARs were grown adherently and maintained in Dulbecco’s modified Eagle’s medium (Sigma-Aldrich, Milan, Italy) with nutrient mixture F12, containing 10% fetal calf serum, penicillin (100 U/mL), streptomycin (100 μg/mL), l-glutamine (2 mM) and geneticin (G418; 0.2 mg/mL) at 37°C in 5% CO2/95% air until the use in cAMP assays. For membrane preparation, the culture medium was removed, and the cells were washed with phosphate-buffered saline and scraped off T75 flasks in ice-cold hypotonic buffer (5 mM Tris HCl, 1 mM EDTA, pH 7.4). The cell suspension was homogenized with a Polytron, centrifuged for 30 min at 40000 g at 4°C, and the resulting membrane pellet was used for competition binding experiments.
(§2) All synthesized compounds have been tested for their affinity to hA1, hA2A, and hA3 ARs. Competition experiments to hA1 ARs were carried out incubating 1 nM [^3H]-8-cyclopentyl-1,3-dipropylxanthine ([^3H]-DPCPX) with membrane suspension (50 μg of protein/100 μL) and different concentrations of the examined compounds at 25°C for 90 min in 50 mM Tris HCl, pH 7.4. […] Inhibition experiments to hA2A ARs were performed incubating the radioligand [^3H]-ZM241385 (4-(2-[7-Amino-2-(2-furyl)[1,2,4]triazolo[2,3-a][1,3,5]triazin-5-ylamino]ethyl)phenol) (1 nM) with the membrane suspension (50 μg of protein/100 μL) and different concentrations of the examined compounds for 60 min at 4°C in 50 mM Tris HCl (pH 7.4), 10 mM MgCl2. Non-specific binding was determined in the presence of ZM241385 (1 μM) and was about 20% of the total binding. Competition binding experiments to A3 ARs were carried out incubating the membrane suspension (50 μg of protein/100 μL) with 0.5 nM [^125I]-N^6-(4-aminobenzyl)-N-methylcarboxamidoadenosine ([^125I]-ABMECA) in the presence of different concentration of the examined compounds for an incubation time of 120 min at 4°C in 50 mM Tris HCl (pH 7.4), 10 mM MgCl2, and 1 mM EDTA. Non-specific binding was defined as binding in the presence of 1μM ABMECA and was always < 10% of the total binding. Bound and free radioactivity were separated by filtering the assay mixture through Whatman GF/B glass fiber filters using a Brandel cell harvester (Brandel Instruments, Unterföhring, Germany). The filter bound radioactivity was counted by Packard Tri Carb 2810 TR scintillation counter (Perkin Elmer, Boston, MA, USA).
(§3) The protein concentration was determined according to a Bio-Rad method with bovine albumin as a standard reference. Inhibitory binding constant (Ki) values were calculated from those of IC50 according to Cheng & Prusoff equation Ki = IC50/(1+[C*]/KD*), where [C*] is the concentration of the radioligand and KD* its dissociation constant. Ki and IC50 values were calculated by non-linear regression analysis using the equation for a sigmoid concentration-response curve (Graph-PAD Prism, San Diego, CA, USA).

hA3 AR = biological target: T2, hA3 AR (Homo sapiens, UniProt P0DMS8); experiment: [125I]AB-MECA competition binding to hA3 CHO cell membranes; settings: for inhibition at 1 µM: percentage of inhibition at 1µM; for Ki: hA3 CHO cells, means ± SEM
T2 construct: expressed in transfected cells; host or cells: CHO cells
T2 sequence (P0DMS8 1-318): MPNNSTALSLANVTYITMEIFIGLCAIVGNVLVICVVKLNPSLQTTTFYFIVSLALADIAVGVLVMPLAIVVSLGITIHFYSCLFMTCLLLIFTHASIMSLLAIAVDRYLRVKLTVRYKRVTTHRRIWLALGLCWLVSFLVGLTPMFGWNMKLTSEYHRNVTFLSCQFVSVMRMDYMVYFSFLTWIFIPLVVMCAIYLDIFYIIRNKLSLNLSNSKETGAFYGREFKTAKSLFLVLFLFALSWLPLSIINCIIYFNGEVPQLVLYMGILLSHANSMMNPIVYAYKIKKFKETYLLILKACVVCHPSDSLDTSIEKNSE
Procedure: as §1, §2, §3

hA1 AR [1] = biological target: T3, hA1 AR (Homo sapiens, UniProt P30542); experiment: Modulation of Forskolin-stimulated cAMP levels in hA1 CHO cells; assay type: cell-based; settings: Forskolin 5 µM; for EC50: means ± SEM of four experiments, read-out: EC50 (potency to increase Forskolin-stimulated cAMP levels, hA1 CHO cells); for Efficacy (modulation of Forskolin-stimulated cAMP, hA1 CHO cells): normalized to DPCPX (set at 100%)
T3 construct: expressed in transfected cells; host or cells: CHO cells
T3 sequence (P30542 1-326): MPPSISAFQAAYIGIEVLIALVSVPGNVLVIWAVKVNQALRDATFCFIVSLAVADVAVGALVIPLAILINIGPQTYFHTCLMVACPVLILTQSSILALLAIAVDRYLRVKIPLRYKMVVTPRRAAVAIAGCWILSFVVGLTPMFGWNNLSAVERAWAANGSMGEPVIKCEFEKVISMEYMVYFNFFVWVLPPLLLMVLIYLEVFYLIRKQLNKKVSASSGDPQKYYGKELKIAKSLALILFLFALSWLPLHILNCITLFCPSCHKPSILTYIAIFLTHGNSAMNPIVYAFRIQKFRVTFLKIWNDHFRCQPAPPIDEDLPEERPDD
Procedure: (§4) The amino-3,5-dicyanopyridines 1–20 were tested for their affinity at hA1, hA2A, and hA3 ARs, stably transfected in Chinese Hamster Ovary (CHO) cells, and were also studied as hA2B agonists by evaluating their stimulatory effect on cAMP production in CHO cells, stably expressing the hA2B AR.
For membrane preparation, the culture medium was removed, and the cells were washed with phosphate-buffered saline and scraped off T75 flasks in ice-cold hypotonic buffer (5 mM Tris HCl, 1 mM EDTA, pH 7.4). The cell suspension was homogenized with a Polytron, centrifuged for 30 min at 40000 g at 4°C, and the resulting membrane pellet was used for competition binding experiments.
CHO cells transfected with hAR subtypes were washed with phosphate-buffered saline, detached with trypsin and centrifuged for 10 min at 200 g. […] At the end of the experiments, plates were read with the Perkin Elmer EnSight Multimode Plate Reader.

hA1 AR [2] = biological target: T3, hA1 AR; experiment: [3H]DPCPX competition binding to hA1 CHO cell membranes
Procedure: as §1, §2, §3

hA2B AR [3] = biological target: T4, hA2B AR (Homo sapiens, UniProt P29275); experiment: cAMP assay, stimulation of cAMP production in hA2B CHO cells (agonism); assay type: cell-based; settings: for Emax at 1 µM: CHO, compound at 1µM, in comparison with NECA (1µM = 100%), read-out: Efficacy hA2B (cAMP assays) (converted); for EC50: hA2B CHO cells, means ± SEM of four assays
T4 construct: expressed in transfected cells; host or cells: CHO cells
T4 sequence (P29275 1-332): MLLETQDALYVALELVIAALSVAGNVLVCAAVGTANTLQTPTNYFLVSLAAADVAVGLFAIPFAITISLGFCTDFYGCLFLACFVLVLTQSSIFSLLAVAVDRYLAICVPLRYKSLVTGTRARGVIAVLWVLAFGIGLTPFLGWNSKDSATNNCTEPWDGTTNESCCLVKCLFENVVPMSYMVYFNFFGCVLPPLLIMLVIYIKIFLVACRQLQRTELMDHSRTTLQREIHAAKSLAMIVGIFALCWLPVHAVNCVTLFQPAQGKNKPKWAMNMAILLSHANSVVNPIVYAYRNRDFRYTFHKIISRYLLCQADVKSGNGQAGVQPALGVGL
Procedure: as §4, §1
CHO cells transfected with hAR subtypes were washed with phosphate-buffered saline, detached with trypsin and centrifuged for 10 min at 200 g. Cells were seeded in 96-well white half-area microplate (Perkin Elmer, Boston, USA) in a stimulation buffer composed of Hank Balanced Salt Solution (Sigma-Aldrich, Milan, Italy), 5 mM HEPES, 0.5 mM Ro 20-1724, and 0.1% BSA. cAMP levels were then quantified by using the AlphaScreen cAMP Detection Kit (Perkin Elmer) following the manufacturer’s instructions. At the end of the experiments, plates were read with the Perkin Elmer EnSight Multimode Plate Reader.

hA2B AR [4] = biological target: T4, hA2B AR; settings: cited from earlier work
A2BAR = tested on: A2BAR; design: method as in PMID 31132418; settings: rat CA1 hippocampus, cited from earlier work
[5] = at 1µM, in comparison with NECA (1µM = 100%)

For `C=CCOc1ccc(-c2c(C#N)c(N)nc(SCc3ncc[nH]3)c2C#N)cc1` [Compound 3, 2-Amino-6-[(1H-imidazol-2-ylmethyl)sulfanyl]-4-[4-(prop-2-en-1-yloxy)phenyl]pyridine-3,5-dicarbonitrile], the “I% hA2A” value (hA2A AR) was 17%, the inhibition at 1 µM (hA3 AR) was 8% and the EC50 (hA1 AR [1]) was 19.6 ± 1.7 nM. For the same molecule, the “Efficacy (modulation of Forskolin-stimulated cAMP, hA1 CHO cells)” value (hA1 AR [1]) was 39 ± 4%, the Ki (hA1 AR [2]) was 16 ± 2 nM and the Emax at 1 µM (hA2B AR [3]) was 56%. For the same molecule, the EC50 (hA2B AR [3]) was 27 ± 3 nM.

In the case of `CCOc1ccc(-c2c(C#N)c(N)nc(SCc3ncc[nH]3)c2C#N)cc1` [Compound 5, 2-(((1H-Imidazol-2-yl)methyl)thio)-6-amino-4-(4-ethoxyphenyl)pyridine-3,5-dicarbonitrile], the “Efficacy hA2B (cAMP assays)” value (hA2B AR [4]; [5]) is listed as 62%.

In the case of `N#Cc1c(N)nc(SCc2ncc[nH]2)c(C#N)c1-c1ccc(F)cc1` [Compound 8, 2-Amino-4-(4-fluorophenyl)-6-[(1H-imidazol-2-ylmethyl)sulfanyl]pyridine-3,5-dicarbonitrile], the Ki (hA2A AR) is reported as 139 ± 12 nM, the Ki (hA3 AR) is reported as 410 ± 38 nM and the EC50 (hA1 AR [1]) is reported as 1.34 ± 0.11 nM. For the same molecule, the “Efficacy (modulation of Forskolin-stimulated cAMP, hA1 CHO cells)” value (hA1 AR [1]) was 34 ± 3%, the Ki (hA1 AR [2]) was 0.78 ± 0.08 nM and the Emax at 1 µM (hA2B AR [3]) was 76%. For the same molecule, the EC50 (hA2B AR [3]) was 18 ± 2 nM and the melting point was 223 to 225 °C (dec.).

For `CSc1ccc(-c2c(C#N)c(N)nc(SCc3ncc[nH]3)c2C#N)cc1` [Compound 11, 2-Amino-6-[(1H-imidazol-2-ylmethyl)sulfanyl]-4-[4-(methylsulfanyl)phenyl]pyridine-3,5-dicarbonitrile], the Ki (hA2A AR) was 227 ± 21 nM, the Ki (hA3 AR) was 388 ± 29 nM and the EC50 (hA1 AR [1]) was 8.87 ± 0.64 nM. The “Efficacy (modulation of Forskolin-stimulated cAMP, hA1 CHO cells)” value (hA1 AR [1]) was 52 ± 4%, the Ki (hA1 AR [2]) was 8.32 ± 0.78 nM and the Emax at 1 µM (hA2B AR [3]) was 30%. For the same molecule, the EC50 (hA2B AR [3]) was 36 ± 3 nM and the melting point was 257 to 259 °C (dec.).

For `COc1ccc(-c2c(C#N)c(N)nc(NCCO)c2C#N)cc1` [Compound 19, 2-Amino-6-[(2-hydroxyethyl)amino]-4-(4-methoxyphenyl)pyridine-3,5-dicarbonitrile], the “I% hA2A” value (hA2A AR) was 2%, the inhibition at 1 µM (hA3 AR) was 15% and the “I% hA1” value (hA1 AR [2]; percentage of inhibition at 1µM, [3H]DPCPX) was 14%. The Emax at 1 µM (hA2B AR [3]) was 1%, the EC50 (hA2B AR [3]) was over 1000 nM and the melting point was 248 to 250 °C.

In the case of `COC(=O)CSc1nc(N)c(C#N)c(-c2ccc(OC)cc2)c1C#N` [Compound 20, Methyl{[6-amino-3,5-dicyano-4-(4-methoxyphenyl)pyridin-2-yl]sulfanyl}acetate], the “I% hA2A” value (hA2A AR) is reported as 1%, the inhibition at 1 µM (hA3 AR) is reported as 5% and the Ki (hA1 AR [2]) is reported as 987 ± 81 nM. The Emax at 1 µM (hA2B AR [3]) was 1%, the EC50 (hA2B AR [3]) was over 1000 nM and the melting point was 218 to 220 °C.

For `N#Cc1c(N)nc(SCc2ncc[nH]2)c(C#N)c1-c1ccc(OCC2CC2)cc1` [Compound P453, 2-{[(1H-imidazol-2-yl)methyl]thio}-6-amino-4-[4-(cyclopropylmethoxy)phenyl]pyridine-3,5-dicarbonitrile], the “Efficacy hA2B (cAMP assays)” value (hA2B AR [4]; [5]) is listed as 70%, the “Effect on PPF (paired pulse facilitation)” value (A2BAR) is listed as “decreases PPF” and the “Effect on A1AR-mediated fEPSP inhibition during OGD” value (A2BAR; two-minute oxygen and glucose deprivation insult) is listed as “delays A1AR-mediated fEPSP inhibition”.

In the case of `CCCn1c(=O)c2[nH]c(C3CCCC3)nc2n(CCC)c1=O` [DPCPX, 8-Cyclopentyl-1,3-dipropylxanthine, reference compound], the “Efficacy (modulation of Forskolin-stimulated cAMP, hA1 CHO cells)” value (hA1 AR [1]) is reported as 100 ± 9%.

In the case of `N#Cc1c(N)nc(SCc2ncc[nH]2)c(C#N)c1-c1ccccc1` [LUF5833, 2-amino-6-[(1H-imidazol-2-ylmethyl)sulfanyl]-4-phenylpyridine-3,5-dicarbonitrile], the “Efficacy hA2B (cAMP assays)” value (hA2B AR [4]; in comparison with NECA) is given as 81%.
